This note sets out measurements from article PMC12268802, “The herbicidal natural product phosphonothrixin is an inhibitor of the riboflavin biosynthetic enzyme L‐3,4‐dihydroxy‐2‐butanone‐4‐phosphate synthase” (Pest Management Science, 2025).

In one assay the target is T1, AtDHBPS (Arabidopsis thaliana, UniProt P47924).
T1 construct: made in house; host or cells: Escherichia coli BL21(DE3)
T1 sequence (P47924 with tags, fused parts or gaps): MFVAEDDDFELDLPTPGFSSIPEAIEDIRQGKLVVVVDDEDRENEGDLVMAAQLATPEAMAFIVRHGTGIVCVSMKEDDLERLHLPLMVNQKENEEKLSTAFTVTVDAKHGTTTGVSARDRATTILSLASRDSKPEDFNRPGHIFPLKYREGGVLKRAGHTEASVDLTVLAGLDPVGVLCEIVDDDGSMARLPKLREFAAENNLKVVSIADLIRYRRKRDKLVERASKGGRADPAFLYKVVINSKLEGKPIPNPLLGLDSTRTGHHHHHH
Description: DHBPS activity assay. It counts as biochemical. The protocol: (§1) DHBPS activity assays were out carried in 96‐well microtiter plates using a modification of the procedure previously described.[18] The reaction mixture contained 100 mM MES (2‐morpholinoethanesulfonic acid) buffer pH 6.5, 20 mM MgCl2, 20 mM D‐ribose‐5‐phosphate (Sigma‐Aldrich R7750), 0.02% Tween‐20, 0.2 mg BSA, 0.5 μg of spinach phosphoriboisomerase (Sigma‐Aldrich P9752) and DHBPS enzyme in a final volume of 110 μL. Assays were initiated by adding enzyme and terminated after 120 min incubation at rt by the addition of 90 μL of a solution of 3.5% α‐naphthol and 0.2% creatine in 2 N NaOH. After an additional 45 min incubation at rt the absorbance was determined at 540 nm. The pI50‐value for inhibition by phosphonothrixin (1) was determined with the XLFit Excel add‐in version 4.3.1 curve fitting program of ID Business Solutions Limited. […] Reaction velocities were fitted to the Michaelis–Menten equation with the XLFit curve fitting program.

A further assay addresses ZtDHBPS (Zymoseptoria tritici, UniProt F9X7Z9). Description: DHBPS activity assay. It counts as biochemical. The method, then:
as §1

For a further assay, the system named is Lemna gibba. Description: Lemna gibba growth assay. It counts as in vivo. To be noted: 100 μM phosphonothrixin; 7 days. The protocol:
Growth experiments were performed in sterile 6‐well cell culture plates and were initiated by transferring four Lemna gibba fronds per well to 5 mL of K‐medium[22] pH 4.8 containing 1% (w/v) sucrose and a selected concentration of phosphonothrixin (1) and riboflavin determined from previous experiments. The cell culture plates were incubated for 7 days in a growth cabinet at 22 °C and a continuous photon flux density of 75 μE/m^2s.

The test system of assay [1] is mono‐ and dicotyledonous weed plants. Description: Greenhouse test, pre-emergence. The assay is classed as in vivo. The note with it: highest application rate tested; data not shown.
Assay [2] has the same test system. Description: Greenhouse test, post-emergence, phenotype of affected plants. It counts as in vivo. The method, then: Seeds of mono‐ and dicotyledonous weed plants were sown in plastic pots of 7 cm diameter filled with a clayey silt soil substrate. The plants were maintained for the preparatory phase of germination and initial growth in the greenhouse under optimum growth conditions. Phosphonothrixin (1) was prepared for application as an emulsion concentrate and diluted together with 0.2% agrotin (a polyfunctional non‐ionic additive) in water corresponding to a spray volume of approximately 600 L ha^−1. At a growth stage of 2 to 4 true leaves the test plants were sprayed and then placed in the greenhouse for 3 weeks under optimum growth conditions. Subsequently, the effect of phosphonothrixin (1) was assessed visually relative to the untreated controls resulting in herbicidal effects (%) ranging from 0% (no effect = untreated control) to 100% (complete control = died‐off ).

Broadly, the IC50 is the concentration that gives 50% inhibition. By Ki is commonly meant the equilibrium dissociation constant of an inhibitor or competing ligand from its target. Read a high Ki as a looser hold on the target.

Chain of ZtDHBPS (F9X7Z9 1-226): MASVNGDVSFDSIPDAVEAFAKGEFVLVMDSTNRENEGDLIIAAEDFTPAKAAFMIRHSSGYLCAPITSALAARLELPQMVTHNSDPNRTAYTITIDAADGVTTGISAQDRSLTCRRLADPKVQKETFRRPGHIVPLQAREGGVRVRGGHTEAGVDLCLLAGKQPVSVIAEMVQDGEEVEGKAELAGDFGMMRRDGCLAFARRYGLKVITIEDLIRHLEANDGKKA

On to `CC(=O)C(O)(CO)CP(=O)(O)O` (centres unmarked) [phosphonothrixin], for which, on AtDHBPS, half-maximal inhibition (IC50) required 58 ± 11 µM and the Ki amounted to 16.6 ± 5 µM. Further, the “type of inhibition of AtDHBPS” value on AtDHBPS (with respect to the substrate) is “competitive inhibitor”. In addition, the IC50 on ZtDHBPS came out at 19 µM. Also, in the assay on Lemna gibba, the “bleaching of Lemna gibba fronds” value was “strong bleaching of the fronds” and the “growth of Lemna gibba” value was “significant growth inhibition”. The pre-emergence herbicidal activity result in assay [1] is on record as “failed to show any pre‐emergence activity”. Besides, in assay [2], the “phenotype of affected plants” value is listed as “bleaching phenotype”.
